Key:
[1] = target: native cockroach ryanodine receptors (roach femoral muscle membranes) (Periplaneta americana, UniProt A0ABQ8T696); experiment: Radioligand displacement ([3H]-GN analog Cpd 1) on roach femoral muscle membranes; type: binding
Description: Binding to Roach Femoral Muscle Membranes:
Assays were carried out in triplicate.

[2] = test system: native cockroach ryanodine receptors (in embryonic neuronal cells); experiment: Calcium release assay, calcium imaging of embryonic cockroach neuronal cells (Fluo-4); type: cell-based, Periplaneta americana
Description: Embryonic neuronal cultures of the American cockroach Periplaneta americana were established, with minor modifications, following the method of Beadle and Lees (1988) (in Cell Culture Approaches to Invertebrate Neuroscience, Academic Press, New York, pp 123-127). Briefly, 26-27-day old oothecae were collected, surface-sterilized and cut open along a line one-third of the distance below the dorsal midline. The heads were removed and placed in Schneider's Drosophila medium (Invitrogen Life Technologies™, Carlsbad, Calif.). Using fine forceps 40 brains were individually removed and placed in a small glass vial containing 700 μl of ‘5+4’ medium (‘5+4’ medium contained 5 parts Schneider's Drosophila medium plus 4 parts roach Basal Medium Eagle, with Earle's salts (BME, Sigma™, St. Louis, Mo.). Roach BME (with Earle's salts) contained 5 parts Hepes (1 M), 1 part penicillin/streptomycin and 44 parts BME (with Earle's salts). ‘5+4’ medium was made fresh and sterile filtered (0.2 μm filter) just prior to use). The brains were dissociated by sequential trituration as follows: 1) brains were passed through a standard Pasteur pipette 10 times; 2) the resulting tissue suspension was passed an additional 5 times through a Pasteur pipet with tip flamed to about half of its original diameter; 3) a final 5 passes were performed using a Pasteur pipet with tip flamed to slightly less than half of its original diameter. A repeat pipettor was used to dispense a 5 μl volume of the resulting suspension into the center of each well of a 96-well, glass-bottom plate previously coated with poly-L-lysine (0.2 mg/ml solution). Cells attached to the bottom of the wells during a 50 min incubation at 27-29° C. 150 ul of a 1:1 mixture of Leibovitz's L-15 medium and Yunker's modified Grace's medium was added, and plates were maintained in a humid incubator at 27-29° C. until use. After cells were allowed to attach wells were filled with a 1:1 mixture of Leibovitz's L-15 medium and Yunker's modified Grace's medium (Leibovitz's L-15 and Grace's medium were obtained from Invitrogen Life Technologies™, Carlsbad, Calif. and Yunker's modified Grace's medium was made with Grace's medium modified by addition of 5 mg L-methionine, 10 mg L-alanine, 182 mg MgCl2.6H20, 1 g Albumin Fraction V, 7 ml Fetal bovine serum, 10 ml Chick embryo extract, 2 ml Penicillin/Streptomycin, and 2 mg 20-hydroxyecdysone (prepared in ethanol prior to addition) to a final volume of 100 ml and sterile filtered (0.2 μm filter)). Cells were maintained in a high humidity incubator at 29° C. until testing.
The calcium imaging and acquisition protocols using roach neuronal cells is as follows:
Cells were rinsed in standard physiological saline having the following composition (mM): NaCl 190; CaCl2 9; KCl 3.1; probenicid 1; Tris buffer 10; pH 7.2. Cells were then bathed in standard physiological saline containing the calcium sensitive fluoroprobe Fluo-4 AM (2 μM) and Pluronic F127 (0.002%) for 45 min. Cells were then rinsed in standard physiological saline for at least 15 min prior to testing. Within the hour prior to testing, standard physiological saline was replaced with standard physiological saline containing the organic cation channel blocker pimozide (10 μM), to inhibit influx of external calcium through voltage-gated calcium channels. The 96-well plate was placed on a Prior™ motorized stage mounted onto a Nikon Diaphot microscope and imaged using a 20× Fluor objective (NA 0.75). Individual wells from the 96-well plate were sequentially excited with light at 495 nm, and the emitted fluorescence at 530 nm was detected using a Hamamatsu ORCA ER digital camera with 2 pixel binning (image size 672×512 pixels).
Acquisition control, image processing and image analysis were conducted using Universal Imaging Corporation's MetaMorph™ imaging software (Universal Imaging, West Chester, Pa.). A series of 3 “control” images were acquired for each well. […]

Chain of native cockroach ryanodine receptors (roach femoral muscle membranes) (A0ABQ8T696 entry or part of it): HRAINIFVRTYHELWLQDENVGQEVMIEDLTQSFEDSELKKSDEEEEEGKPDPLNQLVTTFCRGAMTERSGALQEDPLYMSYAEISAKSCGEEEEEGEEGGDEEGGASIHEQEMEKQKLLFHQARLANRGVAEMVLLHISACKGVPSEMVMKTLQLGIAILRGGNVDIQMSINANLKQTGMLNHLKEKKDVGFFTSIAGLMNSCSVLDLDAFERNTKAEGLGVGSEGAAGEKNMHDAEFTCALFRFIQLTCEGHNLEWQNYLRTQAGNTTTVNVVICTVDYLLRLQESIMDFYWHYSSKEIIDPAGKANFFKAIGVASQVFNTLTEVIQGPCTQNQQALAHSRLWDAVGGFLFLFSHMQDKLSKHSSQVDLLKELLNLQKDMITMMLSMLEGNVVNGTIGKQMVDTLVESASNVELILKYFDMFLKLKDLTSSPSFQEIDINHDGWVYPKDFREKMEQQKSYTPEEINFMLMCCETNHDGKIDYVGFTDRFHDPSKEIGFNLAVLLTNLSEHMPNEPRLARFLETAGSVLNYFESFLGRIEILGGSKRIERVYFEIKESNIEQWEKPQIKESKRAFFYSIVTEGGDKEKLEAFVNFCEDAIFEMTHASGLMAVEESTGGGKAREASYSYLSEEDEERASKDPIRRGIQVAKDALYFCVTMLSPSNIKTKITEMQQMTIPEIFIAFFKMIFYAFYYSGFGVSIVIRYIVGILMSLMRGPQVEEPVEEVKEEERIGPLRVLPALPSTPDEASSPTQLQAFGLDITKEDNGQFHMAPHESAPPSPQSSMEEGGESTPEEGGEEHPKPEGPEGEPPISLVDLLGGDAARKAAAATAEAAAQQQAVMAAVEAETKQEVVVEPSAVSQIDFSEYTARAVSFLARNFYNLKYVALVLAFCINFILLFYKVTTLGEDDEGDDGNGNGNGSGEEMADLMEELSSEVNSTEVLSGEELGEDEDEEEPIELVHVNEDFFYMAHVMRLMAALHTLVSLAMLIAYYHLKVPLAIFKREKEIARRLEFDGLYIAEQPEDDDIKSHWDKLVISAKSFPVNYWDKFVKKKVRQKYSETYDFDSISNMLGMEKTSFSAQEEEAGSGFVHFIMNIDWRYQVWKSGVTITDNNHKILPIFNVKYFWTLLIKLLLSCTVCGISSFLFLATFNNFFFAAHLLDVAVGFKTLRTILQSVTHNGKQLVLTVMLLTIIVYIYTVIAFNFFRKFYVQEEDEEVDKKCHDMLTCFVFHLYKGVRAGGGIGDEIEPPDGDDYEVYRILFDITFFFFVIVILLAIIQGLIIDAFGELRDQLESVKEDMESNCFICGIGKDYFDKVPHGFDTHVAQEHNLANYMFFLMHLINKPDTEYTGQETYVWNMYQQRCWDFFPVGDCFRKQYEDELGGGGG

Row | SMILES | IC50 ([1]; displacement of [3H]-Cpd 1, roach muscle membranes, 60 min at 32° C., read-out: Displacement IC50 (nM) P. americana) | Calcium Release Threshold (nM) P. americana [2] | Radioligand Displacement (P. americana) ([1]; Table 6, result in words) | Calcium Release (P. americana) ([2]; Table 6, result in words)
1 | CNC(=O)c1cc(Cl)cc(C)c1NC(=O)c1cc(Br)nn1-c1ncccc1Cl [Cpd 14] | < 300 nM | <300 nM | – | –
2 | Cn1c(=O)c2c(ncn2C)n(C)c1=O [Caffeine, reference compound] | – | – | Inactive | Agonist
